From patent publication US4839366A, “Methylthioquinolyl guanidine derivative, process of preparation thereof and pharmaceutical compositions therefrom” (Chiesi Farmaceutici S.p.A., priority 1983, dated 1989)
Like-named read-outs stand apart in the source and are kept apart here.

Columns and labels:
[1] = Acute toxicity, single oral administration; conditions: mouse, in vivo, read-out: LD50 approx
Protocol: The toxicity for single administration has been determined by the oral route in IVa:NMRI (SPF) fasted male mice, with water ad libitum, 18 hours before the experiment.

[2] = test system: Carrageenin-induced paw edema in the rat; assay: Carrageenin paw edema in the rat; format: in vivo; conditions: for % inhibition vs controls, AUC (paw edema): AUC of paw volume against time
Protocol: Paw edema was induced in male rats fasted for 18 h but with free access to water, by the method of WINTER et al. (Winter C. A. et al. Proc. Soc. Exp. Biol. Med. 111, 544, 1962) injecting 0.1 ml carrageenin 1% in physiological saline into the right hind paw aponeurosis.
60 min before induction of edema the drugs suspended in 0.2% Tween
80 aqueous solution were dosed by gastric tube (20 ml/Kg); the controls received the vehicle only.
The volume of the right paw was measured by plethysmography immediately before (time 0) and 1, 2, 3, 4, 6 h after subplantar injection of the irritant.
The area under the curve expressing the paw volume plotted against time (AUC) was calculated for each animal.
The results, expressed as percent inhibition of edema development in treated animals as compared to the controls and as ED40 values obtained from the regression lines for dose-AUC, are reported in Table 2.

[3] = test system: phenylquinone writhings in the mouse; assay: Phenylquinone writhings in the mouse; format: in vivo; conditions: for ED50: Mus musculus, from dose-response curves; for ED50 / % inhibition vs controls (writhings) / No. of writhings (X ± SE): oral
Protocol: The method used was that of SIEGMUND et al. (Siegmund et al. J. Pharmacol. Exp. Ther. 119, 184, 1957) modified (Arzneim. Forsch. 31(1), 87, 1981).
Male mice, 19-22 g, fasted for 18 h with free access to water, received the test drugs suspended in 0.2% Tween 80 aqueous solution (10 ml/Kg) by esophageal tube, the controls receiving the vehicle only.
One hour later all the animals were given an intraperitoneal injection of 0.02% phenylquinone solution in 5% aqueous ethanol (10 ml/Kg).
A `blind` observer recorded the number of writhings in each animal from the 5th to the 15th min after phenylquinone administration.

[4] = Acute effect on gastrointestinal tract: gastric ulcers in the rat; format: in vivo; conditions: rat, in vivo, po
Protocol: (§1) Male rats weithing 250-280 g were starved for 18 h but allowed free access to water and the drugs were delivered by esophageal tube (suspension in 0.2% Tween 80 aqueous solution, 10 ml/Kg).
(§2) Control animals received the vehicle only (10 ml/Kg).
(§3) Five hours after drug administration the rats were killed.
(§4) The stomach was slit along the lesser curvature, washed under running water and examined for haemorrhagic lesions in the glandular part of the mucosa: these lesions will be conventionally defined as `ulcers`.
(§5) The following were recorded:
(§6) (a) the sum of the maximum diameters of all the ulcerated spots;
(§7) (b) the number of ulcerated spots.
(§8) The UD50 was calculated by the method of LITCHFIELD and WILCOXON (Litchfield J. T., Wilcoxon F. J. Pharm. Exp. Ther. 96, 99-113, 1949), all animals with gastric lesion whose sum (a) was 2 mm or more being rated as `ulcerated`.

[5] = test system: gastric ulcers in the rat; assay: as above; format: in vivo; conditions: for Potency ratio relative to timegadine: gastric ulcers, UD50; for Gastric ulcers (X ± SE), No. / Gastric ulcers (X ± SE), mm / Rats with gastric ulcers: oral; for Gastric ulcers (X ± SE), No.: number of ulcerated spots; for Gastric ulcers (X ± SE), mm: sum of maximum diameters; for Rats with gastric ulcers: ulceration 2 mm and over
Protocol: as §1, §2, §3, §4, §5, §6, §7, §8

[6] = Determination of the therapeutical index (UD50/ED40); format: in vivo, rat; conditions: gastric ulcers UD50 / paw edema ED40
Protocol: From the UD50 /ED40 ratio (antiinflammatory activity values obtained from the regression lines for dose--AUC) the therapeutic index were calculated (Table 5).

[7] = Rattus norvegicus, oral, from regression lines for dose-AUC (Table 2), read-out: ED40
[8] = restated in Table 5, from regression lines for dose-AUC

CSc1cc(NC(=Nc2nccs2)NC2CCCCC2)c2ccccc2n1 [Compound I, N-cyclohexyl-N"-4-(2-methylthioquinolyl)-N'-2-thiazolyl-guanidine]
LD50 ([1]; po): > 1000 mg/kg | ED40 [2, 7]: 111 µmol/kg | Potency ratio relative to timegadine ([2]; carrageenin paw edema, ED40 (Table 2)): 1.32 | antiinflammatory activity compared with timegadine ([2]; in words): higher than those of timegadine | % inhibition vs controls (paw edema), 1 h ([2]; oral, 30 μmol/kg): 4% | % inhibition vs controls (paw edema), 2 h ([2]; oral, 30 μmol/kg): 47% | % inhibition vs controls (paw edema), 3 h ([2]; oral, 30 μmol/kg): 40% | % inhibition vs controls (paw edema), 4 h ([2]; oral, 30 μmol/kg): 28% | % inhibition vs controls (paw edema), 6 h ([2]; oral, 30 μmol/kg): 8% | % inhibition vs controls, AUC (paw edema) ([2]; oral, 30 μmol/kg): 27.9% | % inhibition vs controls (paw edema), 1 h ([2]; oral, 91 μmol/kg): 13% | % inhibition vs controls (paw edema), 2 h ([2]; oral, 91 μmol/kg): 51% | % inhibition vs controls (paw edema), 3 h ([2]; oral, 91 μmol/kg): 48% | % inhibition vs controls (paw edema), 4 h ([2]; oral, 91 μmol/kg): 42% | % inhibition vs controls (paw edema), 6 h ([2]; oral, 91 μmol/kg): 17% | % inhibition vs controls, AUC (paw edema) ([2]; oral, 91 μmol/kg): 37.3% | % inhibition vs controls (paw edema), 1 h ([2]; oral, 274 μmol/kg): 17% | % inhibition vs controls (paw edema), 2 h ([2]; oral, 274 μmol/kg): 53% | % inhibition vs controls (paw edema), 3 h ([2]; oral, 274 μmol/kg): 58% | % inhibition vs controls (paw edema), 4 h ([2]; oral, 274 μmol/kg): 56% | % inhibition vs controls (paw edema), 6 h ([2]; oral, 274 μmol/kg): 33% | % inhibition vs controls, AUC (paw edema) ([2]; oral, 274 μmol/kg): 49.0% | ED40 [2, 8]: 111 µmol/kg | ED50 [3]: 18.7 µmol/kg | analgesic activity compared with timegadine ([3]; in words): higher than those of timegadine | % inhibition vs controls (writhings) ([3]; 18.3 μmol/Kg): 47.0% | No. of writhings (X ± SE) ([3]; 18.3 μmol/Kg): 19.5 ± 4.8 | % inhibition vs controls (writhings) ([3]; 55 μmol/Kg): 79.3% | No. of writhings (X ± SE) ([3]; 55 μmol/Kg): 7.6 ± 2.4 | % inhibition vs controls (writhings) ([3]; 164 μmol/Kg): 96.5% | No. of writhings (X ± SE) ([3]; 164 μmol/Kg): 1.3 ± 0.5 | Potency ratio relative to timegadine ([3]; phenylquinone writhings, ED50): 3.1 | TD50 at 5 h [4]: 887 µmol/kg | Potency ratio relative to timegadine [5]: 0.47 | gastric irritant potential compared with timegadine ([5]; in words): lesser gastric irritant potential | Gastric ulcers (X ± SE), No. ([5]; 115 μmol/Kg): 0.5 ± 0.3 | Gastric ulcers (X ± SE), mm ([5]; 115 μmol/Kg): 0.5 ± 0.3 mm | Rats with gastric ulcers ([5]; 115 μmol/Kg): 1/10 | Gastric ulcers (X ± SE), No. ([5]; 230 μmol/Kg): 0.6 ± 0.3 | Gastric ulcers (X ± SE), mm ([5]; 230 μmol/Kg): 1.2 ± 0.8 mm | Rats with gastric ulcers ([5]; 230 μmol/Kg): 1/10 | Gastric ulcers (X ± SE), No. ([5]; 461 μmol/Kg): 2.1 ± 1.0 | Gastric ulcers (X ± SE), mm ([5]; 461 μmol/Kg): 3.8 ± 1.8 mm | Rats with gastric ulcers ([5]; 461 μmol/Kg): 4/10 | Gastric ulcers (X ± SE), No. ([5]; 922 μmol/Kg): 4.8 ± 1.5 | Gastric ulcers (X ± SE), mm ([5]; 922 μmol/Kg): 8.7 ± 3.5 mm | Rats with gastric ulcers ([5]; 922 μmol/Kg): 5/10 | T.I. (UD50/ED40) [6]: 7.99

Cc1cc(/N=C(\Nc2nccs2)NC2CCCCC2)c2ccccc2n1 [timegadine, N-cyclohexyl-N"-4-(2-methylquinolyl)-N'-2-thiazolyl guanidine, reference compound]
LD50 ([1]; oral, single administration, male mice, interpolation on Probits paper): > 1000 mg/kg | ED40 [2, 7]: 147 µmol/kg | % inhibition vs controls (paw edema), 1 h ([2]; oral, 30 μmol/kg): 17% | % inhibition vs controls (paw edema), 2 h ([2]; oral, 30 μmol/kg): 18% | % inhibition vs controls (paw edema), 3 h ([2]; oral, 30 μmol/kg): 11% | % inhibition vs controls (paw edema), 4 h ([2]; oral, 30 μmol/kg): 15% | % inhibition vs controls (paw edema), 6 h ([2]; oral, 30 μmol/kg): 4% | % inhibition vs controls, AUC (paw edema) ([2]; oral, 30 μmol/kg): 12.3% | % inhibition vs controls (paw edema), 1 h ([2]; oral, 91 μmol/kg): 38% | % inhibition vs controls (paw edema), 2 h ([2]; oral, 91 μmol/kg): 51% | % inhibition vs controls (paw edema), 3 h ([2]; oral, 91 μmol/kg): 30% | % inhibition vs controls (paw edema), 4 h ([2]; oral, 91 μmol/kg): 27% | % inhibition vs controls (paw edema), 6 h ([2]; oral, 91 μmol/kg): 9% | % inhibition vs controls, AUC (paw edema) ([2]; oral, 91 μmol/kg): 28.4% | % inhibition vs controls (paw edema), 1 h ([2]; oral, 274 μmol/kg): 33% | % inhibition vs controls (paw edema), 2 h ([2]; oral, 274 μmol/kg): 55% | % inhibition vs controls (paw edema), 3 h ([2]; oral, 274 μmol/kg): 58% | % inhibition vs controls (paw edema), 4 h ([2]; oral, 274 μmol/kg): 57% | % inhibition vs controls (paw edema), 6 h ([2]; oral, 274 μmol/kg): 44% | % inhibition vs controls, AUC (paw edema) ([2]; oral, 274 μmol/kg): 52.9% | ED40 [2, 8]: 147 µmol/kg | ED50 [3]: 58.9 µmol/kg | % inhibition vs controls (writhings) ([3]; 18.3 μmol/Kg): 26.1% | No. of writhings (X ± SE) ([3]; 18.3 μmol/Kg): 27.2 ± 4.1 | % inhibition vs controls (writhings) ([3]; 55 μmol/Kg): 36.4% | No. of writhings (X ± SE) ([3]; 55 μmol/Kg): 23.4 ± 4.6 | % inhibition vs controls (writhings) ([3]; 164 μmol/Kg): 82.1% | No. of writhings (X ± SE) ([3]; 164 μmol/Kg): 6.6 ± 2.9 | TD50 at 5 h [4]: 413 µmol/kg | Potency ratio relative to timegadine [5]: 1 | Gastric ulcers (X ± SE), No. ([5]; 115 μmol/Kg): 0.3 ± 0.2 | Gastric ulcers (X ± SE), mm ([5]; 115 μmol/Kg): 0.4 ± 0.2 mm | Rats with gastric ulcers ([5]; 115 μmol/Kg): 0/10 | Gastric ulcers (X ± SE), No. ([5]; 230 μmol/Kg): 0.8 ± 0.3 | Gastric ulcers (X ± SE), mm ([5]; 230 μmol/Kg): 1.3 ± 0.7 mm | Rats with gastric ulcers ([5]; 230 μmol/Kg): 2/10 | Gastric ulcers (X ± SE), No. ([5]; 461 μmol/Kg): 4.4 ± 1.5 | Gastric ulcers (X ± SE), mm ([5]; 461 μmol/Kg): 6.7 ± 2.3 mm | Rats with gastric ulcers ([5]; 461 μmol/Kg): 6/10 | Gastric ulcers (X ± SE), No. ([5]; 922 μmol/Kg): 9.4 ± 1.8 | Gastric ulcers (X ± SE), mm ([5]; 922 μmol/Kg): 18.5 ± 4.4 mm | Rats with gastric ulcers ([5]; 922 μmol/Kg): 9/10 | T.I. (UD50/ED40) [6]: 2.83
